Melting point and Ki data for 20 molecules are collected here from US6969730B2, “Amines as histamine-3 receptor ligands and their therapeutic applications” (Abbott Laboratories, priority 2001, dated 2005).

Structures can show the parent of a compound that is named as a salt. A value given as a limit tells only on which side of the number the result lay.

T1 sequence (Q9QYN8 whole entry): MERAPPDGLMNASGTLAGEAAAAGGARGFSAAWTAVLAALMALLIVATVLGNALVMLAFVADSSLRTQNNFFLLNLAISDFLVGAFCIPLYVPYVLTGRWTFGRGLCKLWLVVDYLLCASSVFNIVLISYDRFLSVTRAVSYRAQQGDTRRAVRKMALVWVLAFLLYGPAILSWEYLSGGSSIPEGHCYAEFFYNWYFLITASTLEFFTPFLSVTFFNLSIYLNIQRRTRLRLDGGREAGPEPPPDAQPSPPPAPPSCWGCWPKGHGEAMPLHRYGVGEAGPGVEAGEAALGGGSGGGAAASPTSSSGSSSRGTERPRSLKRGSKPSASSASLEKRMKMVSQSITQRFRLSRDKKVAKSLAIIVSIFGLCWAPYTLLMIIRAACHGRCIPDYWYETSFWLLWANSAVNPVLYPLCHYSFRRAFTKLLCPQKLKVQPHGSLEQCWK

System in the first data set: not given
Assay: not given
Conditions: not given
Broadly, the melting point is the temperature, or range, at which the solid turns liquid. `CC[C@@H]1CCCN1CCc1cc2cc(-c3ccc(C#N)cc3)ccc2o1` (as salt: tartrate) [Example 163, 4-(2-{2-[(2R)-2-ethyl-1-pyrrolidinyl]ethyl}-1-benzofuran-5-yl)benzonitrile] registered a melting point of 147 °C.

As for `N#Cc1ccc(-c2ccc3oc(CCN4CCC[C@H]4CF)cc3c2)cc1` (as salt: tartrate) [Example 164, 4-(2-{2-[(2S)-2-(fluoromethyl)-1-pyrrolidinyl]ethyl}-1-benzofuran-5-yl)benzonitrile], the melting point was 156.3 °C. Consider `N#Cc1ccc(-c2ccc3oc(CCN)cc3c2)cc1` [Example 162, 4-[2-(2-aminoethyl)-1-benzofuran-5-yl]benzonitrile], for which the melting point fell in the range of 118 to 120 °C.

A further data set concerns the target T1, histamine-3 receptors (H3 receptor) (Rattus norvegicus, UniProt Q9QYN8).
T1 construct: from tissue; host or cells: male Sprague-Dawley rat brain cortex membranes
The data set can be described thus: (3H)-N-α-methylhistamine binding to rat cortical membranes (histamine-3 receptor ligands). The conditions noted are these: male Sprague-Dawley rat brain cortical membranes; (3H)-N-α-methylhistamine ~0.6 nM; 30 minutes at 25° C.; Cheng-Prusoff. The method, then: Briefly, male Sprague-Dawley rat brain cortices were homogenized (1 g tissue/10 mL buffer) in 50 mM Tris-HCl/5 mM EDTA containing protease inhibitor cocktail (Calbiochem) using a polytron set at 20,500 rpm. Homogenates were centrifuged for 20 minutes at 40,000×g. The supernatant was decanted, and pellets were weighed. The pellet was resuspended by polytron homogenization in 40 mL 50 mM Tris-HCl/5 mM EDTA with protease inhibitors and centrifuged for 20 minutes at 40,000×g. […] Rat cortical membranes (12 mg wet weight/tube) were incubated with (^3H)-N-α-methylhistamine (˜0.6 nM) with or without H3 receptor antagonists in a total incubation volume of 0.5 mL of 50 mM Tris-HCl/5 mM EDTA (pH 7.7). Test compounds were dissolved in DSMO to provide a 20 mM solution, serially diluted and then added to the incubation mixture prior to initiating the incubation assay by addition of the membranes. Thioperamide (3 μM) was used to determine nonspecific binding. Binding incubations were conducted for 30 minutes at 25° C. and terminated by addition of 2 mL of ice cold 50 mM Tris-HCl (pH 7.7) and filtration through 0.3% polyethylenimine-soaked Unifilter plates (Packard). These filters were washed 4 additional times with 2 mL of ice-cold 50 mM Tris-HCl and dried for 1 hour. Radioactivity was determined using liquid scintillation counting techniques. Results were analyzed by Hill transformation and Ki values were determined using the Cheng-Prusoff equation.
The Ki is a dissociation constant, usually derived from enzyme kinetics or from competition with a known ligand. Turning to `C[C@@H]1CCCN1CCc1cc2cc(-c3cccc(C(=O)c4cccc(F)c4)c3)ccc2o1` [Example 151, (3-fluorophenyl)[3-(2-{2-[(2R)-2-methyl-1-pyrrolidinyl]ethyl}-1-benzofuran-5-yl)phenyl]methanone], affinity was put at a Ki of 53 nM. Molecule `C[C@@H]1CCCN1CCc1cc2cc(-c3cccc(CO)c3)ccc2o1` [Example 152, [3-(2-{2-[(2R)-2-methyl-1-pyrrolidinyl]ethyl}-1-benzofuran-5-yl)phenyl]methanol] showed a Ki of 2.6 nM. The same measure, in the same setting: with `C[C@@H]1CCCN1CCc1cc2cc(Cc3ccccc3)ccc2o1` [Example 153, (2R)-1-[2-(5-benzyl-1-benzofuran-2-yl)ethyl]-2-methylpyrrolidine] the figure was 32 nM.

Consider `C[C@@H]1CCCN1CCc1cc2cc(-n3ccnc3)ccc2o1` [Example 154, 1-(2-{2-[(2R)-2-methyl-1-pyrrolidinyl]ethyl}-1-benzofuran-5-yl)-1H-imidazole], for which affinity was put at a Ki of 2 nM. For the molecule `Cc1cc(-c2ccc3oc(CCN4CCC[C@H]4C)c(Br)c3c2)ccc1C#N` [Example 155, 4-(3-bromo-2-{2-[(2R)-2-methyl-1-pyrrolidinyl]ethyl}-1-benzofuran-5-yl)-2-methylbenzonitrile], the affinity, expressed as Ki, was 16 nM.

Regarding `C[C@@H]1CCCN1CCc1oc2ccc(-c3ccc(C#N)cc3)cc2c1Cl` [Example 156A, 4-(3-chloro-2-{2-[(2R)-2-methyl-1-pyrrolidinyl]ethyl}-1-benzofuran-5-yl)benzonitrile], the Ki turned out to be 3.7 nM. Still for that read-out and setting: with `C[C@@H]1CCCN1CCc1oc2cc(Cl)c(-c3ccc(C#N)cc3)cc2c1Cl` [Example 156B, 4-(3,6-dichloro-2-{2-[(2R)-2-methyl-1-pyrrolidinyl]ethyl}-1-benzofuran-5-yl)benzonitrile] the figure was 9.7 nM; with `C[C@@H]1CCCN1CCc1oc2ccc(-c3ccc(C#N)cc3)cc2c1I` [Example 157, 4-(3-iodo-2-{2-[(2R)-2-methyl-1-pyrrolidinyl]ethyl}-1-benzofuran-5-yl)benzonitrile], 8.4 nM; with `C[C@@H]1CCC(=O)N1CCc1cc2cc(-c3ccc(C#N)cc3)ccc2o1` [Example 158, 4-(2-{2-[(2R)-2-methyl-5-oxo-1-pyrrolidinyl]ethyl}-1-benzofuran-5-yl)benzonitrile], above 1000 nM. `CC(=O)c1c(CCN2CCC[C@H]2C)oc2ccc(-c3ccc(C#N)cc3)cc12` [Example 159, 4-(3-acetyl-2-{2-[(2R)-2-methyl-1-pyrrolidinyl]ethyl}-1-benzofuran-5-yl)benzonitrile]: the Ki came out at 14 nM. As for `C[C@@H]1CCCN1CCc1cc2cc(-c3ccc(C(=O)C4CC4)cc3)ccc2o1` [Example 160, cyclopropyl[4-(2-{2-[(2R)-2-methyl-1-pyrrolidinyl]ethyl}-1-benzofuran-5-yl)phenyl]methanone], the affinity corresponds to a Ki of 7.6 nM. On the same count and under the same terms, as for `Cc1noc(C)c1-c1ccc2oc(CCN3CCC[C@H]3C)cc2c1` [Example 161, 3,5-dimethyl-4-(2-{2-[(2R)-2-methyl-1-pyrrolidinyl]ethyl}-1-benzofuran-5-yl)isoxazole], the figure is 1.6 nM.

Consider `N#Cc1ccc(-c2ccc3oc(CCN)cc3c2)cc1` [Example 162, 4-[2-(2-aminoethyl)-1-benzofuran-5-yl]benzonitrile], for which the Ki amounted to 581 nM.

`CC[C@@H]1CCCN1CCc1cc2cc(-c3ccc(C#N)cc3)ccc2o1` [Example 163, 4-(2-{2-[(2R)-2-ethyl-1-pyrrolidinyl]ethyl}-1-benzofuran-5-yl)benzonitrile] returned a Ki of 3.7 nM. For `N#Cc1ccc(-c2ccc3oc(CCN4CCC[C@H]4CF)cc3c2)cc1` [Example 164, 4-(2-{2-[(2S)-2-(fluoromethyl)-1-pyrrolidinyl]ethyl}-1-benzofuran-5-yl)benzonitrile], the Ki amounted to 24 nM. Same read-out and setting: as for `C[C@@H]1CCCN1CCc1cc2cc(-c3ccc(C#N)cc3)ccc2s1` [Example 165, 4-(2-{2-[(2R)-2-methyl-1-pyrrolidinyl]ethyl}-1-benzothien-5-yl)benzonitrile], the figure is 16.8 nM; as for “(2R)-1-{2-[5-(4-methoxyphenyl)-1-benzofuran-2-yl]ethyl}-2-methylpyrrolidine [Example 121]”, 51 nM. Molecule “(2S)-1-(2-{5-[5-(4-morpholinylcarbonyl)-2-pyridinyl]-1-benzofuran-2-yl}ethyl)-2-pyrrolidinol [Example 62]” yielded a Ki of 112 nM.
